Reference: PubChem BioAssay (NCI)
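Compound exposure: 48 hours, 5 concentrations, 96-well plates. GI50 is the concentration that inhibits growth by half. The concentration for full growth arrest is given as TGI.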

Legend:
Assay in all cases: inhibition of tumour cell growth, NCI panel, 48 h
A549 NSCLC = tested on: A549 NSCLC
HCT-15 colon = tested on: HCT-15 colon
SNB-19 CNS = tested on: SNB-19 CNS
HOP-92 NSCLC = tested on: HOP-92 NSCLC
LOX IMVI melanoma = tested on: LOX IMVI melanoma
CAKI-1 renal = tested on: CAKI-1 renal
MALME-3M melanoma = tested on: MALME-3M melanoma
HCC-2998 colon = tested on: HCC-2998 colon
KM12 colon = tested on: KM12 colon
HOP-62 NSCLC = tested on: HOP-62 NSCLC
A498 renal = tested on: A498 renal
BT-549 breast = tested on: BT-549 breast
CCRF-CEM leukemia = tested on: CCRF-CEM leukemia
UACC-62 melanoma = tested on: UACC-62 melanoma
HT29 colon = tested on: HT29 colon
RXF 393 renal = tested on: RXF 393 renal
UACC-257 melanoma = tested on: UACC-257 melanoma
SN12C renal = tested on: SN12C renal
SK-OV-3 ovarian = tested on: SK-OV-3 ovarian
MDA-MB-231 breast = tested on: MDA-MB-231 breast
TK-10 renal = tested on: TK-10 renal
MOLT-4 leukemia = tested on: MOLT-4 leukemia
M14 melanoma = tested on: M14 melanoma
IGROV1 ovarian = tested on: IGROV1 ovarian
NCI-H522 lung = tested on: NCI-H522 lung
T-47D breast = tested on: T-47D breast
MDA-MB-435 = tested on: MDA-MB-435
NCI/ADR-RES ovarian = tested on: NCI/ADR-RES ovarian
HL-60(TB) leukemia = tested on: HL-60(TB) leukemia

CN1CCN(c2ccc(C(=O)/C=C/c3cc(C(F)(F)F)ccc3Cl)cc2)CC1
GI50 (A549 NSCLC): 3.65 µM | TGI (A549 NSCLC): 14.8 µM | GI50 (HCT-15 colon): 1.87 µM | TGI (HCT-15 colon): 3.78 µM | GI50 (SNB-19 CNS): 8.95 µM | TGI (SNB-19 CNS): 21 µM | GI50 (HOP-92 NSCLC): 3.79 µM | TGI (HOP-92 NSCLC): 18.1 µM | GI50 (LOX IMVI melanoma): 1.63 µM | TGI (LOX IMVI melanoma): 2.99 µM | GI50 (CAKI-1 renal): 8.23 µM | TGI (CAKI-1 renal): 21.2 µM | GI50 (MALME-3M melanoma): 11.2 µM | TGI (MALME-3M melanoma): 23.4 µM | GI50 (HCC-2998 colon): 1.81 µM | TGI (HCC-2998 colon): 3.2 µM | GI50 (KM12 colon): 3.1 µM | TGI (KM12 colon): 9.83 µM | GI50 (HOP-62 NSCLC): 13.9 µM | TGI (HOP-62 NSCLC): 29.7 µM | GI50 (A498 renal): 17.4 µM | TGI (A498 renal): 32 µM | GI50 (BT-549 breast): 5.42 µM | TGI (BT-549 breast): 20.4 µM | GI50 (CCRF-CEM leukemia): 2.17 µM | TGI (CCRF-CEM leukemia): 5.93 µM | GI50 (UACC-62 melanoma): 10.9 µM | TGI (UACC-62 melanoma): 22.8 µM | GI50 (HT29 colon): 2.01 µM | TGI (HT29 colon): 5.02 µM | GI50 (RXF 393 renal): 2.16 µM | TGI (RXF 393 renal): 11.1 µM | GI50 (UACC-257 melanoma): 10.4 µM | TGI (UACC-257 melanoma): 23.7 µM | GI50 (SN12C renal): 4.32 µM | TGI (SN12C renal): 16.4 µM | GI50 (SK-OV-3 ovarian): 5.66 µM | TGI (SK-OV-3 ovarian): 18.8 µM | GI50 (MDA-MB-231 breast): 2.81 µM | TGI (MDA-MB-231 breast): 8.01 µM | GI50 (TK-10 renal): 13.5 µM | TGI (TK-10 renal): 29 µM | GI50 (MOLT-4 leukemia): 4.94 µM | TGI (MOLT-4 leukemia): 93.6 µM | GI50 (M14 melanoma): 3.13 µM | TGI (M14 melanoma): 10.9 µM | GI50 (IGROV1 ovarian): 3.33 µM | TGI (IGROV1 ovarian): 13 µM | GI50 (NCI-H522 lung): 12.3 µM | TGI (NCI-H522 lung): 27.9 µM | GI50 (T-47D breast): 12.3 µM | TGI (T-47D breast): 39.8 µM | GI50 (MDA-MB-435): 2.14 µM | TGI (MDA-MB-435): 5.06 µM | GI50 (NCI/ADR-RES ovarian): 3.5 µM | TGI (NCI/ADR-RES ovarian): 12.8 µM | GI50 (HL-60(TB) leukemia): 2.14 µM | TGI (HL-60(TB) leukemia): 7.53 µM
